From ChEMBL document CHEMBL5512688 (J Med Chem, 2024)
pIC50: −log10 of the molar value.

Experiments:
[1] = Metabolic stability in human liver microsome assessed as parent compound remaining measured at 60 mins by LCMS/MS analysis; assay type: ADME; details: liver microsomes, read-out: Stability
[2] = AUC (0 to 24 hrs) in ICR mouse at 1 mg/kg, iv measured upto 24 hrs by LC-MS/MS analysis; assay type: ADME, organism-based; details: in vivo
[3] = Half life in ICR mouse at 1 mg/kg, iv measured upto 24 hrs by LC-MS/MS analysis; assay type: ADME, organism-based; details: in vivo
[4] = Volume of distribution in ICR mouse at 1 mg/kg, iv measured upto 24 hrs by LC-MS/MS analysis; assay type: ADME, organism-based; details: in vivo
[5] = Clearance in ICR mouse at 1 mg/kg, iv measured upto 24 hrs by LC-MS/MS analysis; assay type: ADME, organism-based; details: in vivo
[6] = AUC (0 to 24 hrs) in ICR mouse at 60 mg/kg, IG measured upto 24 hrs by LC-MS/MS analysis; assay type: ADME, organism-based; details: in vivo, po
[7] = target: Wee1-like protein kinase (Homo sapiens, UniProt P30291); assay: Inhibition of Wee1 in human U2OS cells assessed as reduction in CDK1 phosphorylation measured for 1 hr by Western blot analysis; assay type: cell-based
Sequence of Wee1-like protein kinase (P30291 whole entry): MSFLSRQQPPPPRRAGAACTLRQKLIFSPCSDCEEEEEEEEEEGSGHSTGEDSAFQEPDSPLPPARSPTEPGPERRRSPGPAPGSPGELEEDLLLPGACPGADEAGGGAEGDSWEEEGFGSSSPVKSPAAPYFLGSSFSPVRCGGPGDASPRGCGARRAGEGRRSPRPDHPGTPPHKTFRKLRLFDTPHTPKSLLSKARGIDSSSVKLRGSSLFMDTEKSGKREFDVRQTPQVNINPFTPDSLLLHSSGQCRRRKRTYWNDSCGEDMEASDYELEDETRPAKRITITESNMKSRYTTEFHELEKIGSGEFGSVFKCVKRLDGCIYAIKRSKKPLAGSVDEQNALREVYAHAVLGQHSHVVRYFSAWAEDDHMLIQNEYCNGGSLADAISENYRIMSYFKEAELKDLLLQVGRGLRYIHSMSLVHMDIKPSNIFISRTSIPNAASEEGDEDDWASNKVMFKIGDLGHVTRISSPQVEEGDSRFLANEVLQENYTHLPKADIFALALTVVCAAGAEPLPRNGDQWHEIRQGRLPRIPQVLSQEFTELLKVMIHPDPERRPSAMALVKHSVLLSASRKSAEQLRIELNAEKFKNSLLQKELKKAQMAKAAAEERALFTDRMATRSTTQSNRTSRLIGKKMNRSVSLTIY

[8] = system: LoVo; assay: Antitumor activity against human LoVo cells xenografted in female BALB/c nude mouse assessed as tumor growth inhibition at 60 mg/kg, IG administered once daily for 27 days; assay type: functional; details: po, 648 h, time 27 day, read-out: TGI
[9] = target: T1, Cyclin-G-associated kinase (Homo sapiens) (UniProt O14976); assay: Inhibition of GAK (unknown origin) at 1 uM relative to control
T1 sequence (whole entry): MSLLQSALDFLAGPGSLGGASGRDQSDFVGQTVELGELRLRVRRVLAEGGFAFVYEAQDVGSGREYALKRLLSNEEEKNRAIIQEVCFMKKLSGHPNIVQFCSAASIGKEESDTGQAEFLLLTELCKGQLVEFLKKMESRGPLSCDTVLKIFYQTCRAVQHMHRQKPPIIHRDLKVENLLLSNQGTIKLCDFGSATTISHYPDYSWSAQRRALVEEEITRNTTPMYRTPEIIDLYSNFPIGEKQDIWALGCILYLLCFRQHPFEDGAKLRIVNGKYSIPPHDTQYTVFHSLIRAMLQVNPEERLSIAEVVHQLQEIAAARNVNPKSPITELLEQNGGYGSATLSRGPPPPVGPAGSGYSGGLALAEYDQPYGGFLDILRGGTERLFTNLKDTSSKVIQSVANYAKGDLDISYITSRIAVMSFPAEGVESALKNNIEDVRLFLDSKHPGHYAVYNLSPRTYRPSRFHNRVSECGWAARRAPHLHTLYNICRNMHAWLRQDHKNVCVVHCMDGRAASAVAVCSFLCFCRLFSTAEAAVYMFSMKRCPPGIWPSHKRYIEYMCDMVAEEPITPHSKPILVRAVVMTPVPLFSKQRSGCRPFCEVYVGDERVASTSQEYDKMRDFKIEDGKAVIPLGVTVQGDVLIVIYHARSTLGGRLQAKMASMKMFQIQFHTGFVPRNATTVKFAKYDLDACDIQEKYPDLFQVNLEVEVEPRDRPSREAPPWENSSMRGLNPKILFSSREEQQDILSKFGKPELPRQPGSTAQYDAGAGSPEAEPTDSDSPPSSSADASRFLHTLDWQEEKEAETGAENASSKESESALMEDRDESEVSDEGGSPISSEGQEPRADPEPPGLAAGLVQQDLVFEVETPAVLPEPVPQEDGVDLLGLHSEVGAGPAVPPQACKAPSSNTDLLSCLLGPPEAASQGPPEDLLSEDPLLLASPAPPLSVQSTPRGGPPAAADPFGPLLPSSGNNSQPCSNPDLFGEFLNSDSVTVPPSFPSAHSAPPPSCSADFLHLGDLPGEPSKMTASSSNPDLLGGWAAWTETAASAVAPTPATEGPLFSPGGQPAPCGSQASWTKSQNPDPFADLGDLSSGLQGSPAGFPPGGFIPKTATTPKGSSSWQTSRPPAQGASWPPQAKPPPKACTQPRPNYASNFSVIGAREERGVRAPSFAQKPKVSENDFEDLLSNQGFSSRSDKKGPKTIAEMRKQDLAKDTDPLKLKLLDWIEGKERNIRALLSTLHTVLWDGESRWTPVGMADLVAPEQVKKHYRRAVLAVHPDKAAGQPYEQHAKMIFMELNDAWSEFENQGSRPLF

[10] = system: A-427; assay: Induction of apoptosis in human A-427 cells assessed as viable cells at 200 nM measured for 48 hrs by Annexin V/PI double staining based flow cytometry analysis (reference value: 97.7%); assay type: functional; details: read-out: Activity
[11] = system: A-427; assay: Induction of apoptosis in human A-427 cells assessed as necrotic cells at 200 nM measured for 48 hrs by Annexin V/PI double staining based flow cytometry analysis (reference value: 0.098%); assay type: functional
[12] = system: A-427; assay: Induction of apoptosis in human A-427 cells assessed as viable cells at 400 nM measured for 48 hrs by Annexin V/PI double staining based flow cytometry analysis (reference value: 97.7%); assay type: functional; details: read-out: Activity
[13] = system: A-427; assay: Induction of apoptosis in human A-427 cells assessed as late apoptotic cells at 400 nM measured for 48 hrs by Annexin V/PI double staining based flow cytometry analysis (reference value: 0.21%); assay type: functional
[14] = system: A-427; assay: Induction of apoptosis in human A-427 cells assessed as late apoptotic cells at 800 nM measured for 48 hrs by Annexin V/PI double staining based flow cytometry analysis (reference value: 0.21%); assay type: functional
[15] = system: A-427; assay: Induction of apoptosis in human A-427 cells assessed as necrotic cells at 800 nM measured for 48 hrs by Annexin V/PI double staining based flow cytometry analysis (reference value: 0.098%); assay type: functional
[16] = system: A-427; assay: Induction of cell cycle arrest in human A-427 cells assessed as accumulation of cells at G0/G1 phase at 100 nM measured for 48 hrs by flow cytometry analysis (reference value: 49.5%); assay type: functional
[17] = system: A-427; assay: Induction of cell cycle arrest in human A-427 cells assessed as accumulation of cells at S phase at 100 nM measured for 48 hrs by flow cytometry analysis (reference value: 4 %); assay type: functional
[18] = system: A-427; assay: Induction of cell cycle arrest in human A-427 cells assessed as accumulation of cells at G2/M phase at 100 nM measured for 48 hrs by flow cytometry analysis (reference value: 10.9 %); assay type: functional
[19] = system: A-427; assay: Induction of cell cycle arrest in human A-427 cells assessed as accumulation of cells at G0/G1 phase at 200 nM measured for 48 hrs by flow cytometry analysis (reference value: 49.5%); assay type: functional
[20] = Acute toxicity in female C57 mouse assessed as reduction in body weight at 2000 mg/kg, IG measured for 14 days; assay type: organism-based; details: in vivo, po, 336 h, time 14 day

`C=CCn1c(=O)c2cnc(Nc3ccc(N4CCN(C)CC4)cc3)nc2n1-c1cccc(-c2cnccn2)n1` showed a remaining at 1 h [1] of 58.5%, an AUC(0-t) at 24 h [2] of 118 ng·h/mL and a half-life [3] of 1.06 h. For the same compound, the Vd [4] was 11.3 L/kg, the clearance [5] was 137 mL/min/kg and the AUC(0-t) at 24 h [6] was 4340 ng·h/mL. The pIC50 [7] was 6.37, the inhibition in vivo at 60 mg/kg [8] was 88% and the inhibition [9] was > 90%. The viability at 0.2 µM [10] was 60.6%, the Activity [11] was 4.82% and the viability at 0.4 µM [12] was 58.3%. The Activity [13] was 29.2%, the Activity [14] was 35.4% and the Activity [15] was 3.64%. The Activity [16] was 41.4%, the Activity [17] was 48.5% and the Activity [18] was 7.09%. The Activity [19] was 31.6% and the Activity [20] was “Non-Toxic”.
